PMC10974317, “Anti-COVID Drugs (MMV COVID Box) as Leishmanicidal Agents: Unveiling New Therapeutic Horizons” (Pharmaceuticals, 2024)
Like-named read-outs stand apart in the source and are kept apart here.

Tests used:
[1] = system: Leishmania amazonensis promastigotes; assay: Leishmanicidal activity against promastigotes (alamarBlue assay); format: cell-based; conditions: 72 h, mean ± SD, read-out: inhibitory concentration 50 (IC50), promastigote stage, L. amazonensis
Method: (§1) Initial screening of the 160 compounds against Leishmania promastigotes was performed at 10 μM following MMV foundation instructions provided with the box. The compound activity was assessed using the modified alamarBlue® assay (Invitrogen/Life Technologies, Madrid, Spain) with 10^6 promastigotes per well. DMSO concentration never surpassed 0.1% (v/v) to avoid impacting parasite proliferation or morphology. Subsequently, an EnSpire multimode plate reader (PerkinElmer, MA, USA) was used to measure fluorescence after 72 h. […] Serial dilutions were made in 96-well plates and incubated with parasites for 72 h after adding alamarBlue®. IC50 values were calculated using SigmaPlot 14.0 (Systat Software Inc., Chicago, IL, USA) based on fluorescence measurements. Each concentration was tested in duplicate across three independent experiments.

[2] = system: Leishmania donovani promastigotes; assay: as above; format: cell-based; conditions: 72 h; for IC50: Leishmania donovani, read-out: inhibitory concentration 50 (IC50), promastigote stage, L. donovani
Method: as §1

[3] = system: L. amazonensis intracellular amastigotes; assay: Intracellular amastigote activity (parasite rescue and transformation assay); format: cell-based, Leishmania amazonensis; conditions: for Selectivity index (CC50/IC50): CC50 murine macrophages / IC50 L. amazonensis amastigotes
Method: Intracellular amastigote activity against L. amazonensis was measured through a parasite rescue and transformation assay for the purchased compounds. Macrophages were seeded in a 96-well plate and infected with promastigotes at the metacyclic stage for subsequent compound treatment. After incubation, macrophages were lysed, and the medium and conditions were changed to stimulate amastigote transformation. The results were assessed using alamarBlue® [28].

[4] = system: Leishmania amazonensis promastigotes; assay: Mitochondrial membrane potential disruption (JC-1); format: cell-based; conditions: 24 h with IC90, vs negative control
Method: JC-1 Mitochondrial Membrane Potential kit (Cayman Chemical, Ann Arbor, MI, USA) was employed following the manufacturer’s instructions. […] Three independent experiments were conducted for this assay.

[5] = promastigotes, alamarBlue, mean ± SD, w/a: without activity
[6] = Leishmania amazonensis, Macrophage, in Mus musculus, intracellular amastigotes in murine macrophages, read-out: IC50, amastigote stage, L. amazonensis

Compound: CC(C)C[C@H](NC(=O)[C@H](Cc1ccccc1)NC(=O)c1cnccn1)B(O)O [Bortezomib]
- IC50 ([1]; Leishmania amazonensis): 0.42 ± 0.08 µM
- IC50 [2, 5]: 37.2 ± 2.51 µM
- IC50 ([3]; Leishmania amazonensis, Macrophage, in Mus musculus, read-out: IC50, amastigote stage, L. amazonensis, intracellular amastigotes in murine macrophages): 0.04 ± 0.01 µM
- change in mitochondrial membrane potential (ΔΨm) [4]: significant decrease

Compound: CCCCCCCCCCCCCCCCOP(=O)([O-])OCC[N+](C)(C)C [Miltefosine]
- IC50 [2]: 72.2 ± 3.06 µM
- Selectivity index (CC50/IC50) [3]: 23

Compound: CO[C@@H]1[C@H](N(C)C(=O)c2ccccc2)C[C@H]2O[C@]1(C)n1c3ccccc3c3c4c(c5c6ccccc6n2c5c31)C(=O)NC4 [Midostaurin]
- activity against the amastigote form ([3]; at 10 μM): no activity

Compound: C=CCNc1nc(NCC=C)nc(N2CCN(C(c3ccc(F)cc3)c3ccc(F)cc3)CC2)n1 [Almitrine]
- IC50 [1]: 1.19 ± 0.02 µM
- IC50 ([1]; Leishmania amazonensis): < 1.4 µM
- inhibitory concentration 50 (IC50), promastigote stage, L. donovani [2, 5]: w/a at 100
- IC50 [3, 6]: < 2.4 µM
- IC50 ([3]; read-out: IC50, amastigote stage, L. amazonensis, intracellular amastigotes in murine macrophages): 2.18 ± 0.47 µM
- change in mitochondrial membrane potential (ΔΨm) [4]: significant decrease

Compound: CC(C)N1CCN(c2ccc(OCC3COC(Cn4cncn4)(c4ccc(Cl)cc4Cl)O3)cc2)CC1 (stereo not drawn) [Terconazole]
- IC50 ([1]; Leishmania amazonensis): 3.82 ± 1.04 µM
- IC50 [2, 5]: 11.6 ± 1.38 µM
- Selectivity index (CC50/IC50) [3]: 19
- IC50 [3, 6]: < 2.4 µM
- IC50 ([3]; intracellular amastigotes in murine macrophages, read-out: IC50, amastigote stage, L. amazonensis): 2.38 ± 0.4 µM
- change in mitochondrial membrane potential (ΔΨm) [4]: significant decrease

Compound: C[C@@H]1CCCN1CCc1cc2cc(-c3ccc(C#N)cc3)ccc2o1 [ABT239]
- IC50 [1]: 1.31 ± 0.07 µM
- IC50 ([1]; Leishmania amazonensis): < 1.4 µM
- IC50 [2, 5]: 1.68 ± 0.25 µM
- Selectivity index (CC50/IC50) [3]: 46
- IC50 [3, 6]: 0.49 ± 0.13 µM
